Experiments:
[1] = tested on: FLK-1 receptor; experiment: FLK-1 Assay (cellular/catalytic ELISA, VEGF-stimulated phosphotyrosine); format: cell-based; set-up: concentration or dose not given beside the values
Protocol: (§1) The cellular/catalytic assays described herein are performed in an ELISA format. The general procedure is as follows: a compound is introduced to cells expressing the test kinase, either naturally or recombinantly, for a selected period of time after which, if the test kinase is a receptor, a ligand known to activate the receptor is added. The cells are lysed and the lysate is transferred to the wells of an ELISA plate previously coated with a specific antibody recognizing the substrate of the enzymatic phosphorylation reaction. Non-substrate components of the cell lysate are washed away and the amount of phosphorylation on the substrate is detected with an antibody specifically recognizing phosphotyrosine compared with control cells that were not contacted with a test compound.
An ELISA assay is conducted to measure the kinase activity of the FLK-1 receptor and more specifically, the inhibition or activation of TK activity on the FLK-1 receptor. Specifically, the following assay can be conducted to measure kinase activity of the FLK-1 receptor in cells genetically engineered to express Flk-1.
a. Corning 96-well ELISA plates (Corning Catalog No. 25805-96);
b. Cappel goat anti-rabbit IgG (catalog no. 55641);
c. PBS (Gibco Catalog No. 450-1300EB);
d. TBSW Buffer (50 mM Tris (pH 7.2), 150 mM NaCl and 0.1% Tween-20);
e. Ethanolamine stock (10% ethanolamine (pH 7.0), stored at 4° C.);
f. HNTG buffer (20 mM HEPES buffer (pH 7.5), 150 mM NaCl, 0.2% Triton X-100, and 10% glycerol);
g. EDTA (0.5 M (pH 7.0) as a 100× stock);
h. Sodium orthovanadate (0.5 M as a 100× stock);
i. Sodium pyrophosphate (0.2 M as a 100× stock);
j. NUNC 96 well V bottom polypropylene plates (Applied Scientific Catalog No. AS-72092);
k. NIH3T3 C7#3 Cells (FLK-1 expressing cells);
l. DMEM with 1× high glucose L-Glutamine (catalog No. 11965-050);
n. L-glutamine, Gibco (catalog no. 25030-016);
o. VEGF, PeproTech, Inc. (catalog no. 100-20)(kept as 1 μg/100 μl stock in Milli-Q dH2O and stored at −20° C.;
p. Affinity purified anti-FLK-1 antiserum;
q. UB40 monoclonal antibody specific for phosphotyrosine (see, Fendley, et al., 1990, Cancer Research 50:1550-1558);
r. EIA grade Goat anti-mouse IgG-POD (BioRad catalog no. 172-1011);
s. 2,2-azino-bis(3-ethylbenz-thiazoline-6-sulfonic acid (ABTS) solution (100 mM citric acid (anhydrous), 250 mM Na2HPO4 (pH 4.0), 0.5 mg/ml ABTS (Sigma catalog no. A-1888)), solution should be stored in dark at 4° C. until ready for use;
t. H2O2 (30% solution) (Fisher catalog no. H325);
u. ABTS/ H2O2 (15 ml ABTS solution, 2 μl H2O2) prepared 5 minutes before use and left at room temperature;
v. 0.2 M HCl stock in H2O;
w. dimethylsulfoxide (100%) (Sigma Catalog No. D-8418); and
y. Trypsin-EDTA (Gibco BRL Catalog No. 25200-049).
1. Coat Corning 96-well ELISA plates with 1.0 μg per well Cappel Anti-rabbit IgG antibody in 0.1M Na2CO3 pH 9.6. Bring final volume to 150 μl per well. Coat plates overnight at 4° C. Plates can be kept up to two weeks when stored at 4° C.
2. Grow cells in Growth media (DMEM, supplemented with 2.0 mM L-Glutamine, 10% FBS) in suitable culture dishes until confluent at 37° C., 5% CO2.
3. Harvest cells by trypsinization and seed in Corning 25850 polystyrene 96-well round bottom cell plates, 25,000 cells/well in 200 μl of growth media.
4. Grow cells at least one day at 37° C., 5% CO2.
5. Wash cells with D-PBS 1×.
6. Add 200 μl/well of starvation media (DMEM, 2.0 mM 1-Glutamine, 0.1% FBS). Incubate overnight at 37° C., 5% CO2.
7. Dilute Compounds 1:20 in polypropylene 96 well plates using starvation media. Dilute dimethylsulfoxide 1:20 for use in control wells.
8. Remove starvation media from 96 well cell culture plates and add 162 μl of fresh starvation media to each well.
9. Add 18 μl of 1:20 diluted compound dilution (from step 7) to each well plus the 1:20 dimethylsulfoxide dilution to the control wells (+/− VEGF), for a final dilution of 1:200 after cell stimulation. Final dimethylsulfoxide is 0.5%. Incubate the plate at 37° C., 5% CO2 for two hours.
10. […]

[2] = tested on: PDGF-R; experiment: PDGF-R Assay (cellular ELISA, U1242 cells); format: cell-based; set-up: concentration or dose not given beside the values
Protocol: as §1
All cell culture media, glutamine, and fetal bovine serum can be purchased from Gibco Life Technologies (Grand Island, N.Y.) unless otherwise specified. All cells are grown in a humid atmosphere of 90-95% air and 5-10% CO2 at 37° C. All cell lines are routinely subcultured twice a week and are negative for mycoplasma as determined by the Mycotect method (Gibco).
For ELISA assays, cells (U1242, obtained from Joseph Schlessinger, NYU) are grown to 80-90% confluency in growth medium (MEM with 10% FBS, NEAA, 1 mM NaPyr and 2 mM GLN) and seeded in 96-well tissue culture plates in 0.5% serum at 25,000 to 30,000 cells per well. After overnight incubation in 0.5% serum-containing medium, cells are changed to serum-free medium and treated with test compound for 2 hr in a 5% CO2, 37° C. incubator. Cells are then stimulated with ligand for 5-10 minute followed by lysis with HNTG (20 mM Hepes, 150 mM NaCl, 10% glycerol, 5 mM EDTA, 5 mM Na3VO4, 0.2% Triton X-100, and 2 mM NaPyr). Cell lysates (0.5 mg/well in PBS) are transferred to ELISA plates previously coated with receptor-specific antibody and which had been blocked with 5% milk in TBST (50 mM Tris-HCl pH 7.2, 150 mM NaCl and 0.1% Triton X-100) at room temperature for 30 min. Lysates are incubated with shaking for 1 hour at room temperature. The plates are washed with TBST four times and then incubated with polyclonal anti-phosphotyrosine antibody at room temperature for 30 minutes. Excess anti-phosphotyrosine antibody is removed by rinsing the plate with TBST four times. Goat anti-rabbit IgG antibody is added to the ELISA plate for 30 min at room temperature followed by rinsing with TBST four more times. ABTS (100 mM citric acid, 250 mM Na2HPO4 and 0.5 mg/mL 2,2′-azino-bis (3-ethylbenzthiazoline-6-sulfonic acid)) plus H2O2 ([…] 30% H2O2 to 10 ml ABTS) is added to the ELISA plates to start color development. Absorbance at 410 nm with a reference wavelength of 630 nm is recorded about 15 to 30 min after ABTS addition.

SMILES	Flk Kinase % Inhibition (P.110) [1] [%]	PDGF Kinase % Inhibition (P.119) [2] [%]
Cc1c(Br)cc(Br)c2c1C(=Cc1ccc(F)cc1)C(=O)N2 [10717/H05]	5.0	–
Cc1c(Br)cc(Br)c2c1C(=Cc1c[nH]c3ccccc13)C(=O)N2 [10717/H06]	12.5	–
Cc1ccc(C=C2C(=O)Nc3c(Br)cc(Br)c(C)c32)s1 [10717/H07]	1.1	–
Cc1c(Br)cc(Br)c2c1C(=Cc1ccc(Br)cc1)C(=O)N2 [10717/H08]	−8.4	–
Cc1c(Br)cc(Br)c2c1C(=Cc1ccc[nH]1)C(=O)N2 [10717/H09]	−17.5	–
COc1cccc(O)c1C=C1C(=O)Nc2c(Br)cc(Br)c(C)c21 [10717/H10]	−5.0	–
Cc1[nH]c(C=C2C(=O)Nc3c(Br)cc(Br)c(C)c32)c(Br)c1Br [10717/H11]	−0.4	–
Cc1c(Br)cc(Br)c2c1C(=Cc1ccc(Br)o1)C(=O)N2 [10726/H05]	−6.1	−38.0
Cc1cn(C)cc1C=C1C(=O)Nc2c(Br)cc(Br)c(C)c21 [10726/H06]	17.5	−20.9
Cc1c(Br)cc(Br)c2c1C(=Cc1cc(O)c3c(c1O)CCCC3)C(=O)N2 [10726/H07]	−9.5	−30.4
Cc1c(Br)cc(Br)c2c1C(=C1C(=O)Nc3ccc(F)cc31)C(=O)N2 [10726/H08]	−15.0	15.1
Cc1c(Br)cc(Br)c2c1C(=C1C(=O)Nc3ccccc31)C(=O)N2 [10726/H09]	1.5	15.1
CCc1ccc(C=C2C(=O)Nc3c(Br)cc(Br)c(C)c32)s1 [10726/H10]	11.0	6.9
COc1ccc(C=C2C(=O)Nc3c(Br)cc(Br)c(C)c32)cc1 [10726/H11]	12.9	−0.1
CCN(CC)c1ccc(C=C2C(=O)Nc3c(Br)cc(Br)c(C)c32)cc1 [10727/H02]	−1.2	−33.6
CCc1cc(CC)c(C=C2C(=O)Nc3c(Br)cc(Br)c(C)c32)[nH]1 [10727/H03]	4.3	−20.5
Cc1c(Br)cc(Br)c2c1C(=Cc1cc(Cl)cc(Br)c1O)C(=O)N2 [10727/H04]	1.8	13.7
